Results published in the NIST ThermoML archive (doi:10.1016/j.fluid.2014.01.044).
± gives the expanded uncertainty stated by the source.

Experiments:
[1] = xn = mol fraction of the nth substance listed; settings: 100.2 kPa, Liquid, Pycnometric method
[2] = 100.2 kPa, Liquid, Pycnometric method

mass density ([1]; 298.2 K, x1 = 2.41e-07) | mass density ([1]; 303.2 K, x1 = 3.11e-07) | mass density ([1]; 308.2 K, x1 = 4.32e-07) | mass density ([1]; 313.2 K, x1 = 5.86e-07) | mass density ([1]; 318.2 K, x1 = 6.93e-07) | mass density ([2]; 298.2 K) | mass density ([2]; 303.2 K) | mass density ([2]; 308.2 K) | mass density ([2]; 313.2 K) | mass density ([2]; 318.2 K) | Compound
1000 ± 5 kg/m3 | 996 ± 6 kg/m3 | 993 ± 13 kg/m3 | 991 ± 2 kg/m3 | 989 ± 2 kg/m3 |  |  |  |  |  | CCCCCCCCCC(=O)OCCN1CCN(CCCN2c3ccccc3Sc3ccc(C(F)(F)F)cc32)CC1 + O
 |  |  |  |  | 1000 ± 2 kg/m3 | 996 ± 2 kg/m3 | 993 ± 2 kg/m3 | 991 ± 2 kg/m3 | 989 ± 2 kg/m3 | O [water]
